Source: US5994402A, “Anti-inflammatory and anti-pyretic method” (priority 1997, dated 1999)

Tests used:
[1] = test system: cerebral ischemia-reperfusion injury; details: literature; cited from earlier work
[2] = test system: lung permeability after intratracheal LPS; assay: LPS-induced lung injury: lung permeability index (transcapillary 125I-albumin flux); format: in vivo, male Sprague Dawley rats; details: for Lung PI (t = 4 hrs): LPS +, mean ± SEM
Description: (§1) Male Sprague Dawley rats weighing 250-275 g were obtained from Charles River Laboratories (Constante, Quebec). All animal studies were performed in accordance with guidelines set forth by the Toronto Hospital Animal Care Committee and the Canadian Council on Animal Care. Animals were housed in standard wire bottom cages, fed standard rat chow and water ad libitum and were allowed to acclimatize before use. Prior to experimentation, animals were fasted overnight and anesthetized with intraperitoneal sodium pentobarbital (50 mg/kg). A tracheostomy was performed and 0.5 ml of saline containing […] of lipopolysaccharide was instilled followed by 20 mechanically ventilated breaths using a rodent ventilator. Sham animals received 0.5 ml of saline alone. Animals were maintained at 37° C. with the use of warming blankets until recovery from anaesthesia.
(§2) For examples 11 to 17, systemic GSH depletion in animals was accomplished by administering various doses of DEM or phorone by intraperitoneal injection following an overnight fast
At the end of the experimental protocol, rats were ventilated, heparin (100 U) was injected into the right ventricle, and 1 ml of blood was withdrawn by cardiac puncture. Following exsanguination, lungs were perfused blood-free by cannulating the pulmonary artery and infusing 10 ml of a low-potassium dextran solution containing 0.5 mg/L of PGE1. The left ventricle, left atria and mitral valve were opened widely to allow free drainage of effluent. The right lung was immediately frozen in liquid nitrogen for assay of non-protein thiols and ICAM-1 and TNF-a mRNA expression, myeloperoxidase activity, as described below. The left lung was used to calculate a permeability index (PI) as follows: [formula] Thioglycollate-induced Peritonitis

[3] = test system: lung GSH; assay: Lung glutathione / non-protein thiol assay (DTNB); format: in vivo, male Sprague Dawley rats; details: for Lung GSH (t = 4 hrs): LPS +, mean ± SEM
Description: as §1, §2
(§3) Quantitation of total lung and endothelial non-protein sulfhydryls (NPSH) was assessed using a DTNB based assay as described by Jocelyn. Lung tissue was thawed and weighed, and approximately 0.25 gm was homogenized in 2 ml of 5% SSA. The homogenate was sonicated for 30 seconds and centrifuged for 10 minutes at 10 000 g. The resultant acid thiol extract was assayed for NPSH by quantitating the reduction of DTNB through its conversion to 5-thio-2-nitrobenzoic acid (TNB) at 412 nm using a spectrophotometer. Sample values were then calculated from a standard curve generated using known amounts of GSH and are expressed as GSH equivalents per gram of lung tissue.
Quantitation of lung non-protein sulfhydryls (NPSH) was assessed using a DTNB based assay as described by Jocelyn ^17. Lung tissue was thawed and weighed, and approximately 0.25 gm was homogenized in 2 ml of 5% SSA. The homogenate was sonicated for 30 seconds and centrifuged for 10 minutes at 10 000 g. The resultant acid thiol extract was assayed for NPSH by quantitating the is reduction of DTNB through its conversion to 5-thio-2-nitrobenzoic acid (TNB) at 412 nm using a spectrophotometer. Sample values were then calculated from a standard curve generated using known amounts of GSH and are expressed as GSH equivalents per gram of lung tissue.

[4] = test system: RHEC; assay: Cytotoxicity to RHEC (LDH, trypan blue, monolayer integrity); format: cell-based, rat; details: for supernatant lactate dehydrogenase activity: DEM, mean ± SEM
Source text: To determine whether the reduction in ICAM-1 expression was a direct effect of DEM, we attempted to recapitulate the effect in vitro using rat heart endothelial cells (RHEC) activated by either LPS or TNF-a.
(§4) ICAM-1 is expressed on a number of cells present in the lung including endothelial cells, macrophages, neutrophils and alveolar epithelial cells {3224}. Since DEM served to reduced PMN sequestration In the lung, we hypothesized that an effect on endothelial cell ICAM-1 expression might be responsible. To test this possibility, we modeled the system in vitro using RHEC activated by either LPS or TNF-a. […] To determine whether the effect of GSH depletion on ICAM-1 expression was species specific, this parameter was similarly evaluated in HUVEC.
Endothelial cells were isolated from the hearts of 5-day old rats according to the method of Kasten ^22 and allowed to grow to confluence. For experiments 11 to 17, human umbilical vein endothelial cells (HUVEC) were isolated as previously described. The endothelial cells were harvested using trypsin-EDTA treatment and seeded into 96 well, flat bottomed microtitre plates in minimal essential medium with 20% fetal calf serum. When the monolayers had reached confluence (approximately 4 days) cells were pretreated with diethylmaleate for 30 minutes followed by activation with either LPS or TNF-a. After 6 hours, supernatants were collected for measurement of lactate dehydrogenase (LDH) activity. Cells were washed twice with RPMI/5% fetal calf serum and incubated with mouse anti-rat ICAM-1 mAb for 1 hour, washed, and then incubated with peroxidase-conjugated goat anti-mouse IgG for 1 hour. Cells were washed again and color development initiated by the addition of the substrate, o-phenyidiamine hydrochloride. After 18 minutes, the reaction was stopped with 3 M sulfuric acid and the optical density at 492 nm determined using a microtitre plate reader. Data are expressed as the change in absorption from baseline. Quantitation of supernatant LDH activity as a measure of cytotoxicity was determined using spectrophotometric methods as previously described ^23.

[5] = test system: antigen-induced arthritis; assay: Antigen-induced arthritis (AIA); format: in vivo, Lewis rats; details: DEM 6 mmole/kg ip 1 h prior to antigen; 3+ without DEM
Description: We examined the effect of intracellular thiol depletion in antigen-induced arthritis (AIA) with the administration of diethylmaleate (DEM) which is known to deplete glutathione. AIA was induced by sensitizing Lewis rats with 2 subcutaneous injections of methylated bovine serum albumin (1 mg/ml), then administering an intra-articular injection of mBSA.

[6] = test system: skin vascular permeability; assay: LPS dermal inflammation: skin permeability index; format: in vivo, Swiss Webster mice; details: for PI (mean ± SEM): 24 h
Description: Swiss Webster mice were injected intradermally with saline or LPS (30 μg) with or without ip DEM or vehicle. Injection sites were harvested after 24 hours and evaluated for change in vascular permeability, using I^125 -labelled albumin and for levels of ICAM-1 mRNA (Table III).

[7] = test system: intracellular GSH levels in RHEC; assay: Intracellular GSH in RHEC; format: cell-based, rat; details: DEM 250 mM (so in the source)
Source text: as §4, §3

[8] = test system: kidney transplant recipients; assay: Kidney transplant survival; format: in vivo, black 6 mouse donor to C3H mouse; details: DEM 6 mmol/kg to donor and recipient; some mice
Source text: A kidney from a black 6 mouse was transplanted into a C3H mouse in a sample of ten test mice and ten control mice. This is a major mismatch. In the test group, donors were given a single injection of DEM (6mmol/kg) immediately prior to the harvest of the kidney. Recipient mice received a single dose prior to insertion of the kidney. No other agents were used. In the control group, donors and recipients were not given an injection of DEM.

[9] = phorone 250 mg/kg ip 1 h prior to LPS

SMILES: CCCCS(=N)(=O)CCC(N)C(=O)O (stereo not shown) [BSO, buthionine sulfoximine]
- mortality following cerebral ischemia-reperfusion injury [1]: reduced mortality

SMILES: CC(C)=CC(=O)C=C(C)C [Phorone, diisopropylidene acetone]
- LPS-induced increase in lung permeability [2, 9]: almost complete prevention of the increase in lung permeability
- reduction in lung GSH levels [3, 9]: comparable reduction in lung GSH levels

SMILES: CCOC(=O)/C=C\C(=O)OCC [DEM, diethylmaleate]
- Lung PI (t = 4 hrs) ([2]; DEM injected at -1 h): 0.06 ± 0.02
- Lung PI (t = 4 hrs) ([2]; DEM injected at -3 h): 0.09 ± 0.02
- Lung GSH (t = 4 hrs) ([3]; DEM injected at 0 h): 278 ± 18
- Lung GSH (t = 4 hrs) ([3]; DEM injected at +2 h): 361 ± 16
- Lung GSH (t = 4 hrs) ([3]; DEM injected at -1 h): 185 ± 48
- Lung GSH (t = 4 hrs) ([3]; DEM injected at -3 h): 591 ± 118
- cell viability (trypan blue exclusion) ([4]; RHEC): did not affect cell viability
- integrity of the cell monolayer ([4]; RHEC): nor alter the integrity of the cell monolayer
- supernatant lactate dehydrogenase levels ([4]; RHEC): unaffected
- supernatant lactate dehydrogenase activity ([4]; RHEC treatment: LPS (1 mg/ml)): 33.0 ± 4.0 U/L
- supernatant lactate dehydrogenase activity ([4]; RHEC treatment: TNF-a (100 ng/ml)): 33.5 ± 2.5 U/L
- supernatant lactate dehydrogenase activity ([4]; RHEC treatment: control): 32.5 ± 3.5 U/L
- quantitative histopathology score [5]: 0
- skin permeability index, DEM alone ([6]; DEM alone): no effect
- PI (mean ± SEM) ([6]; LPS id + DEM 3 mmol/kg ip): 4.03 ± 0.43
- PI (mean ± SEM) ([6]; LPS id + DEM 6 mmol/kg ip, p < 0.001 vs LPS): 0.84 ± 0.28
- reduction in intracellular GSH levels [7]: ≈ 75%
- intracellular GSH levels ([7]; No DEM: 6.74±0.08, p<0.01): 1.66±0.1 nmoles/106 cells
- survival of recipients [8]: 40 to 50 days
